According to US10544095B2 (Pfizer Inc., priority 2015, dated 2020):

Experiments:
[1] = molecular target: human recombinant TDO2 enzyme (Homo sapiens (Human), UniProt P48775); experiment: Assay for TDO2 enzymatic activity determination; format: biochemical; conditions: human recombinant TDO2, L-Trp 1 mM, kynurenine absorbance at 480 nm
Method: The compounds of formula I, its subformulae, and enantiomers, salts and solvates thereof, are useful to inhibit the enzymatic activity of human TDO2. To measure the TDO2 activity, the procedure described in Dolusic et al. J. Med. Chem.; 2011, 54, […] was adapted: the reaction mixture contained (final concentrations) potassium phosphate buffer (50 mM, pH 7.5), ascorbic acid ([…]), methylene blue (0.125 μM), catalase (40 units/mL, from bovine liver, Sigma), and human recombinant TDO2 enzyme (prepared as described in Dolusic et al. J. Med. Chem.; 2011, 54, 5320-5334; 0.9 μg) without or with the compounds of the present invention at the indicated concentrations (total volume 112.5 μL). The reaction was initiated by the addition of 37.5 μL of L-Trp (final concentration 1 mM) at room temperature. The reaction was conducted at room temperature during one hour and stopped by the addition of 30 μL of 30% (w/v) trichloroacetic acid. To convert N-formylkynurenine into kynurenine, the reaction mixture was incubated at 65° C. for 30 min. […] Kynurenine concentrations were determined by measuring the absorbance at 480 nm. A standard curve was made with pure kynurenine. The TDO activity was measured as described above using ten serial concentrations of the compounds of the present invention. Data were fitted using the Prism™ software (GraphPad Software, Inc.) using standard parameters.

[2] = molecular target: hTDO2 in human glioblastoma A172 cells (Homo sapiens (Human), UniProt P48775); experiment: Cellular assay for TDO2 activity determination in A172 cells; format: cell-based; conditions: overnight incubation, kynurenine absorbance at 480 nm
hTDO2 in human glioblastoma A172 cells, sequence (P48775 whole entry): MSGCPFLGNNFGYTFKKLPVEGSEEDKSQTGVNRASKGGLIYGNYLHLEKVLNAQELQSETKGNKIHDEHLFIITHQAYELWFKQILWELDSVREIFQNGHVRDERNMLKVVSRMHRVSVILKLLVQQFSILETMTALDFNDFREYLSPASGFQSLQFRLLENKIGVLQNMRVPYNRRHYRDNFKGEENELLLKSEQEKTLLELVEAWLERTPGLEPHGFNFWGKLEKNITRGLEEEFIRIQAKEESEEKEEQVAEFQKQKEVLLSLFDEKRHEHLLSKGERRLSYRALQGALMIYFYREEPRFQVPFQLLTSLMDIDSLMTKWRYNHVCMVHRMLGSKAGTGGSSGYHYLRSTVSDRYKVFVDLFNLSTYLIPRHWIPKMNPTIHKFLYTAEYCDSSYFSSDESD
Outline: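 Glioblastoma A172 cells with endogenous hTDO2, 1.25×10^4 cells/well, incubated overnight at 37° C. with ten serial compound concentrations in IMDM with 2% FBS. Supernatant kynurenine, after TCA precipitation and 4-(dimethylamino)-benzaldehyde reaction, read at 480 nm against kynurenine standard curve; data curve-fitted.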

human recombinant TDO2 enzyme, sequence (P48775 whole entry): as above

| IC50 [1] [nM] | IC50 [2] [nM] | Compound |
| --- | --- | --- |
| 900 | 170 | N[C@H]1CN(S(=O)(=O)c2ccc(-c3c[nH]c4cc(F)ccc34)cc2)C[C@@H]1F [Example 80, (3S,4 S)-4-fluoro-1-{[4-(6-fluoro-1H-indol-3-yl)phenyl]sulfonyl}pyrrolidin-3-amine] |
| 820 | 100 | NC(=O)[C@H]1C[C@H](NS(=O)(=O)c2ccc(-c3c[nH]c4cc(F)ccc34)cc2)C1 [Example 97, (Trans)-3-(4-(6-fluoro-1H-indol-3-yl)phenyl-sulfonamido)cyclobutanecarboxamide] |
| 4400 | 340 | O=S(=O)(c1cccc(-c2c[nH]c3cc(F)ccc23)c1)N1CCNCC1 [Example 7, 6-fluoro-3-(3-(piperazin-1-ylsulfonyl)phenyl)-1H-indole] |
| 420 | 330 | O=S(=O)(c1ccc(-c2c[nH]c3cc(F)ccc23)cc1O)N1CCNCC1 [Example 35, 5-(6-fluoro-1H-indol-3-yl)-2-(piperazin-1-ylsulfonyl)phenol] |
| 2400 | 83 | NS(=O)(=O)c1cccc(-c2c[nH]c3cc(F)ccc23)c1 [Example 10, 3-(6-fluoro-1H-indol-3-yl)benzenesulfonamide] |
| 1100 | 150 | NCCNC(=O)c1ccc(-c2c[nH]c3cc(F)ccc23)cc1 [Example 2, N-(2-aminoethyl)-4-(6-fluoro-1H-indol-3-yl)benzamide] |
| 1900 | 260 | NC(=O)COC1CCN(S(=O)(=O)c2ccc(-c3c[nH]c4cc(F)ccc34)cc2)CC1 [Example 84, 2-[(1-{[4-(6-fluoro-1H-indol-3-yl)phenyl]sulfonyl}piperidin-4-yl)-oxy]acetamide] |
| 1000 | 82 | NS(=O)(=O)c1ccc(-c2c[nH]c3cc(F)ccc23)cc1 [Example 6, 4-(6-fluoro-1H-indol-3-yl)benzenesulfonamide] |
| 740 | 120 | CS(=O)(=O)NCCNS(=O)(=O)c1ccc(-c2c[nH]c3cc(F)ccc23)cc1 [Example 21, 4-(6-fluoro-1H-indol-3-yl)-N-(2-(methylsulfonamido)-ethyl)benzenesulfonamide] |
| – | 83000 | O=C1CCCN1CC1(O)CCCN(S(=O)(=O)c2ccc(-c3c[nH]c4cc(F)ccc34)cc2)C1 (stereo not drawn) [Example 132, 1-((1-((4-(6-fluoro-1H-indol-3-yl)phenyl)sulfonyl)-3-hydroxypiperidin-3-yl)methyl)pyrrolidin-2-one] |
| – | 430 | NCCNS(=O)(=O)c1cc(F)cc(-c2c[nH]c3cc(F)ccc23)c1 [Example 44, N-(2-aminoethyl)-3-fluoro-5-(6-fluoro-1H-indol-3-yl)-benzenesulfonamide] |
| – | 341 | COCc1cc(-c2c[nH]c3cc(F)ccc23)ccc1S(=O)(=O)NCCC(N)=O [Example 165, 3-((4-(6-fluoro-1H-indol-3-yl)-2-(methoxymethyl)phenyl)-sulfonamido) propanamide] |
| – | 169 | CN(CC(O)c1ncc[nH]1)S(=O)(=O)c1ccc(-c2c[nH]c3cc(F)ccc23)cc1 (stereo not drawn) [Example 133, 4-(6-fluoro-1H-indol-3-yl)-N-(2-hydroxy-2-(1H-imidazol-2-yl)ethyl)-N-methylbenzene-sulfonamide] |
| – | 247 | NS(=O)(=O)c1ccc(-c2c[nH]c3cc(F)ccc23)cc1CC(F)(F)F [Example 142, 4-(6-fluoro-1H-indol-3-yl)-2-(2,2,2-trifluoroethyl)-benzenesulfonamide] |
| – | 330 | NCCNS(=O)(=O)c1cc(O)cc(-c2c[nH]c3cc(F)ccc23)c1 [Example 69, N-(2-aminoethyl)-3-(6-fluoro-1H-indol-3-yl)-5-hydroxy-benzenesulfonamide] |
| – | 630 | O=S(=O)(c1cc(-c2c[nH]c3cc(F)ccc23)ccc1Cl)N1CCNCC1 [Example 23, 3-(4-chloro-3-(piperazin-1-ylsulfonyl)phenyl)-6-fluoro-1H-indole] |
| – | 365 | CNCCN1CCN(S(=O)(=O)c2ccc(-c3c[nH]c4cc(F)ccc34)cc2)CC1=O [Example 150, 4-((4-(6-fluoro-1H-indol-3-yl)phenyl)sulfonyl)-1-(2-(methylamino)ethyl) piperazin-2-one] |
| – | 79 | CS(=O)(=O)c1ccc(-c2c[nH]c3cc(F)ccc23)cc1CCO [Example 179, 2-(5-(6-fluoro-1H-indol-3-yl)-2-(methylsulfonyl)phenyl)ethanol] |
| – | 180 | CN1CCN(C(=O)NCCNS(=O)(=O)c2ccc(-c3c[nH]c4cc(F)ccc34)cc2)CC1 [Example 110, N-(2-(4-(6-fluoro-1H-indol-3-yl)phenylsulfonamido)ethyl)-4-methylpiperazine-1-carboxamide] |
| – | 1040 | CNCCCN1CCN(S(=O)(=O)c2ccc(-c3c[nH]c4cc(F)ccc34)cc2)CC1=O [Example 153, 4-((4-(6-fluoro-1H-indol-3-yl)phenyl)sulfonyl)-1-(3-(methylamino)propyl)piperazin-2-one] |
| – | 174 | NC(=O)Cc1cc(-c2c[nH]c3cc(F)ccc23)ccc1S(N)(=O)=O [Example 144, 2-(5-(6-fluoro-1H-indol-3-yl)-2-sulfamoylphenyl)-acetamide] |
| – | 990 | NC(=O)c1cc(-c2c[nH]c3cc(F)ccc23)ccc1S(=O)(=O)N1CCNCC1 [Example 41, 5-(6-fluoro-1H-indol-3-yl)-2-(piperazin-1-ylsulfonyl)benzamide] |
| – | 560 | Cn1cnnc1CNS(=O)(=O)c1ccc(-c2c[nH]c3cc(F)ccc23)cc1 [Example 92, 4-(6-fluoro-1H-indol-3-yl)-N-[(4-methyl-4H-1,2,4-triazol-3-yl)methyl]-benzenesulfonamide] |
| – | 210 | CN(C)C(=O)CCNS(=O)(=O)c1ccc(-c2c[nH]c3cc(F)ccc23)cc1 [Example 49, 3-(4-(6-fluoro-1H-indol-3-yl)phenylsulfonamido)-N,N-dimethylpropanamide] |
| – | 41 | NC(=O)CCNS(=O)(=O)c1ccc(-c2c[nH]c3cc(F)ccc23)cc1CO [Example 167, 3-((4-(6-fluoro-1H-indol-3-yl)-2-(hydroxymethyl)-phenyl)sulfonamido)propanamide] |
| – | 4300 | COc1cc(-c2c[nH]c3cc(F)ccc23)cc(S(=O)(=O)NCCN)c1 [Example 61, N-(2-aminoethyl)-3-(6-fluoro-1H-indol-3-yl)-5-methoxybenzene-sulfonamide] |
| – | 133 | O=S(=O)(c1ccc(-c2c[nH]c3cc(F)ccc23)cc1)N1CCOC[C@H]1CO [Example 115, (R)-(4-((4-(6-fluoro-1H-indol-3-yl)phenyl)sulfonyl)morpholin-3-yl)methanol] |
| – | 84 | O=S(=O)(c1ccc(-c2c[nH]c3cc(F)ccc23)cc1)N1C[C@H](O)[C@@H](O)C1 [Example 66, (3S,4S) 1-[4-(6-Fluoro-1H-indol-3-yl)-benzenesulfonyl]-pyrrolidine-3,4-diol] |
| – | 360 | CN(C)CCCN1CCN(S(=O)(=O)c2ccc(-c3c[nH]c4cc(F)ccc34)cc2)CC1=O [Example 154, 1-(3-(dimethylamino)propyl)-4-((4-(6-fluoro-1H-indol-3-yl)phenyl)sulfonyl) piperazine-2-one] |
| – | 380 | O=S(=O)(c1c(F)cc(-c2c[nH]c3cc(F)ccc23)cc1F)N1CCNCC1 [Example 75, 3-(3,5-difluoro-4-(piperazin-1-ylsulfonyl)phenyl)-6-fluoro-1H-indole] |
